{"source": "patent US20100249043A1", "about": "“COMPOSITIONS AND METHODS FOR PROMOTING HAIR GROWTH” (LA CANADA VENTRURES, INC., priority 2009, published 2010)", "tested_on": "scalp hair", "assay": "scalp hair conditioner / scalp serum applied to dry scalp, monthly follow up with photographs", "format": "in vivo", "settings": "applied to dry scalp after cleansing", "text": "The subjects were asked to apply the scalp serum with various concentrations of prostaglandin (dechloroethylcloprostenolamide from 0 wt % to 0.03 wt %), and a placebo is applied on the separate portion of the scalp. […] All the agents are applied directly to dry scalp after cleansing. Follow up are done monthly and photographs are taken."}
{"substance": "dechloroethylcloprostenolamide [prostaglandin]", "values": [{"measurement": "time to response on scalp", "value": 3, "unit": "month"}]}
